We go through 4 compounds from ChEMBL document CHEMBL3046403, “Synthesis and anticancer activity of para-xylyl linked bis-benzimidazolium salts and respective Ag(I) N-heterocyclic carbene complexes” (Med Chem Res, 2013).

What all share (assay type): functional, cell-based
Assay [1] relates to HL-60. As to the kind of experiment: Anticancer activity against Homo sapiens (human) HL60 cells assessed as abnormal morphological changes after 48 hr by inverted phase contrast microscopic analysis.
Assay [2] deals with HCT-116. As to the kind of experiment: Anticancer activity against Homo sapiens (human) HCT116 cells assessed as abnormal morphological changes after 48 hr by inverted phase contrast microscopic analysis.
In assay [3] the test system is HL-60. The assay can be described thus: Anticancer activity against Homo sapiens (human) HL60 cells assessed as inhibition of cell proliferation after 72 hr by MTT assay. The conditions noted are these: for IC50: HL-60, 72 h. (In general: Tetrazolium dyes change colour on reduction, which living cells bring about.)
Assay [4] deals with HCT-116. The assay can be described thus: Anticancer activity against Homo sapiens (human) HCT116 cells assessed as inhibition of cell proliferation after 72 hr by MTT assay. The conditions noted are these: for IC50: HCT-116, 72 h.
For assay [5], the system named is HCT-116. As to the kind of experiment: Anticancer activity against Homo sapiens (human) HCT116 cells assessed as cells with abnormal large number of vacuoles in cytoplasm after 48 hr by inverted phase contrast microscopic analysis.
Assay [6] concerns HCT-116. As to the kind of experiment: Anticancer activity against Homo sapiens (human) HCT116 cells assessed as reduction in cell number after 48 hr by inverted phase contrast microscopic analysis.

Structures are written as SMILES. Active and inactive are the calls of the source. No cut-off for these calls is given here.

As for `CCCn1c[n+](Cc2ccc(C[n+]3cn(CCC)c4ccccc43)cc2)c2ccccc21`, the result in assay [1] and in assay [2] was Active. In addition, the inhibition entry in assay [3] and in assay [4] was “Dose-dependent effect” each time. For the same compound, the values for the IC50 in assay [3] and in assay [4] were 49.4 µM and 1.4 µM, respectively.

For `O=c1[nH]cc(F)c(=O)[nH]1` [FLUOROURACIL], in assay [3], the inhibition entry was “Dose-dependent effect” and the IC50 turned out to be 5.4 µM. For the same compound, the inhibition result in assay [4] was “Dose-dependent effect”.

Take `CCn1c[n+](Cc2ccc(C[n+]3cn(CC)c4ccccc43)cc2)c2ccccc21`: the outcome in assay [1] and in assay [5] was Active. In addition, the inhibition result in assay [3] and in assay [4] was “Dose-dependent effect” throughout. Moreover, the IC50 in assay [3] was 39.5 µM; in assay [4], 0.3 µM.

On to `CCCCn1c[n+](Cc2ccc(C[n+]3cn(CCCC)c4ccccc43)cc2)c2ccccc21`, for which the outcome in assay [6] and in assay [1] was Active. Also, the inhibition result in assay [3] and in assay [4] was “Dose-dependent effect” each time. Also, the half-maximal inhibitory concentration (IC50) was found to be 55.7 µM in assay [3] and 18.7 µM in assay [4].

For orientation: IC50 means the concentration at which inhibition is half-maximal.
